According to patent US7071206B2, “Agents for treating neurodegenerative disorders” (Medivation, Inc., priority 1995, dated 2006):

How the values were obtained:
NMDA receptor [1] = test: Anti-NMDA activity: prevention of convulsions and death caused by NMDA injected into the lateral ventricle of the brain; format: in vivo; conditions: mice, i.p. 40 minutes before NMDA 0.1 μg into the lateral ventricle, probit analysis
Protocol: The experiment was conducted in white non-inbred male mice of 20–24 g of weight. A solution of the test agent in 0.2 ml of 5% aqueous dimethylsulfoxide was injected intraperitoneally 40 minutes before the injection of NMDA into the lateral vehicle of the brain. For the mice that had been prepared beforehand for the experiment a skin flap on the head of each mouse was removed under ether anestesia and a hole was bored in the skull by a fine drill. NMDA (0.1 μg) in a volume of 1.4 μl was injected with a microsyringe. The microsyringe needle was immersed to a depth of 2.5 mm. After the operation, the wound was treated with a 2% novocaine solution. […] The accuracy of NMDA injection was monitored by injection of methylene blue. Two to 4 hours after the operation, the mice were used for a pharmacological experiment.
The animals inoculated with a saline solution were used as control.
Each dose of the agent was tested in a croup of 6–8 animals. The ED50 value (the dose of the agent preventing the development of convulsions and the death of 50% of the animals) was determined by a probit-analysis method (Litchfild J. T., Wicoxon F. J.—Pharmacol. Exp. Therap., 1949, v. 96, p. 99–114).

NMDA receptor [2] = conditions: cited from earlier work

| SMILES | ED50 (dose preventing the development of convulsions and the death of 50% of the animals) (NMDA receptor [1]) | also measured |
| --- | --- | --- |
| CCN1CCc2[nH]c3ccccc3c2C1 [No. 6, 2-ethyl-2,3,4,5-tetrahydro-1H-pyrido[4,3-b]indole] | 45 ± 6 mg/kg |  |
| Cc1ccc(CCn2c3c(c4ccccc42)CN(C)CC3)cn1 [No. 9, 2-methyl-5-[2-(6-methyl-3-pyridyl)ethyl]-2,3,4,5-tetrahydro-1H-pyrido[4,3-b]indole] | 22 ± 4 mg/kg |  |
| Cc1ccc2[nH]c3c(c2c1)CN(C)CC3 [No. 3, 2,8-dimethyl-2,3,4,5-tetrahydro-1H-pyrido[4,3-b]indole] |  | ED50 (dose preventing the development of convulsions and the death of 50% of the animals) (NMDA receptor [1]; listed as 3): ~40 mg/kg |
| CN1CCc2[nH]c3ccccc3c2C1 [No. 1, 2-methyl-2,3,4,5-tetrahydro-1H-pyrido[4,3-b]indole] | 30 ± 4 mg/kg |  |
| CN1CCc2[nH]c3ccc(Br)cc3c2C1 [No. 5, 2-methyl-8-bromo-2,3,4,5-tetrahydro-1H-pyrido[4,3-b]indole] | 29 ± 5 mg/kg |  |
| c1ccc(CN2CCc3[nH]c4ccccc4c3C2)cc1 [No. 7, 2-benzyl-2,3,4,5-tetrahydro-1H-pyrido[4,3-b]indole] | 43 ± 5 mg/kg |  |
| Cc1ccc2c(c1)c1c(n2Cc2ccccc2)CCN(C)C1 [No. 8, 2,8-dimethyl-5-benzyl-2,3,4,5-tetrahydro-1H-pyrido[4,3-b]indole] | 45 ± 5 mg/kg |  |
| Cl.Nc1c2c(nc3ccccc13)CCCC2 [Tacrine, 9-amino-1,2,3,4-tetrahydroacridine hydrochloride, reference compound] | not active |  |
| NC(CCCP(=O)(O)O)C(=O)O (stereo not drawn) [AP-5, 2-amino-5-phosphonovaleric acid] | 190 ± 20 mg/kg | side neurotoxic effect (disturbance of coordination of movement, sedative effect) (NMDA receptor [2]; in the doses that produce the anti-NMDA effect): side neurotoxic effect; ED50, anti-NMDA effect (NMDA receptor [2]; literature value): 190 mg/kg |
| Cc1ccc2[nH]c3c(c2c1)CN(C)CC3 [No. 2, 2,8-dimethyl-2,3,4,5-tetrahydro-1H-pyrido[4,3-b]indole] |  | ED50 (dose preventing the development of convulsions and the death of 50% of the animals) (NMDA receptor [1]; listed as 2): 16 ± 4 mg/kg |
